# Reference: patent US8802439B2, “Methods for enhancing infectivity of retroviruses” (priority 2009, dated 2014)
# Tested on: nMLV-GFP
# Assay: Infectivity of nMLV-GFP virions (RT-normalized), GFP fluorescence via FACS
# Assay type: cell-based
# Conditions: produced with PiB; TZM, OMK, sMAGI, Vero, CV-1 target cells
# Method: Infection assays for retrovirus: Single-round infections: CD4^+ TZM-bl 100,000 cells/well/mL were seeded onto 24-well plates 24 hours prior to infection. These cells were infected in quadruplicate to 24-well plates. Infectivity was scored using an enzymatic galactosidase activity assay. Specifically, infected TZM-bl cells were washed and lysed, and 20 μl of lysate was transferred to a 96-well plate for detecting β-galactosidase activity. 100 μl of reaction buffer Galacton-Star substrate (Applied Biosystems, Bedford, Mass.), diluted 1:50, was added to 20 μl of lysate, and the light emission was measured over 1 second in a microplate luminometer after 30 minutes incubation. […] Replication was monitored by p24 ELISA. […] Viruses were used to infect in duplicate wells, incubated for 48 hours, washed with PBS, trypsinized, fixed in 1% formaldehyde and subsequently analyzed by fluorescence-activated cell sorting (FACS) for percentage cells infected.
# We further examined whether blocking Pin1 in producer cells can enhance the infectivity of retroviruses in different primate target cells. […] Infectivity was analyzed by GFP fluorescence via FACS. […] If more cells are infected than the number infected by viruses from untreated cells, this is expressed as a value above 100%—e.g. 2000 cells/10,000 vs 4000 cells/10,000 would be 100% and 200% respectively. […]
smiles,measurement,value
"CCOC(=O)CN1C(=O)c2ccc3c4c(ccc(c24)C1=O)C(=O)N(CC(=O)OCC)C3=O [PiB, diethyl-1,3,6,8-tetrahydro-1,3,6,8-tetraoxobenzo[lmn][3,8]phenanthroline-2,7-diacetate]",infectivity of nMLV-GFP in primate target cell panel,enhanced infectivity
